Measured values as given in patent US10143720B2, “Modulation of hepatitis B virus cccDNA transcription” (DREXEL UNIVERSITY, priority 2012, dated 2018).
“Also recorded” adds a separate entry of the source. Read-outs that look alike come from different tables or passages of the source. Where a SMILES comes first, the peptide text is derived from it. [ ]: non-standard residue; d: D form. β3hL = CC(C)C[C@H](N)CC(=O)O; Nva = CCC[C@H](N)C(=O)O

Tests used:
HDAC III = settings: cited from earlier work; for HDAC III inhibitor (printed in the HDAC-II inhibitor line): from cited references
HDAC-II = settings: cited from earlier work; for HDAC-II inhibitor?: from cited references
HBV cccDNA [1] = test: cccDNA-dependent DHBV pgRNA / cccDNA transcription in dstet5 cells; assay type: cell-based; settings: for Selectivity Index (SI): CC50 divided by EC50; for cccDNA transcription: Dstet5 cells
Description: Most HBV producing cells lines produce HBV gene products from an HBV transgene integrated into the host chromosome, and thus cccDNA is not the major source of viral product. This makes screening for drugs that target cccDNA difficult. Cell lines were produced in which viral gene products are dependent upon cccDNA. It was established human Hep G2 and chicken hepatoma (LMH)-stable cell lines for this purpose with tetracycline (tet) regulated HBV/DHBV. […] Upon addition of tet back to media to block transgene transcription, and removal of PFA to allow the viral DNA synthesis in the pgRNA-containing capsid to proceed, there is a rapid decline of viral RNA (day 1 and 2), with an eventual increase to a higher level when cccDNA is made after day 3.
With a system and conditions under which viral transcripts are produced in a cccDNA dependent manner (FIGS. 1, 2B), approximately 100 compounds were screened, including those from the inventors' in-house small compound library, those present in the inventors' Natural Products collection, and selected compounds including inhibitors of cellular epigenetic modification enzymes, including HDACs, HATs, Sirtuins, histone methyltransferases, histone demethylases and DNA methyltransferases.

HDAC-I = settings: cited from earlier work; for HDAC-I inhibitor?: from cited references; for activity against class I HDACs: in words
Toxicity on dstet5 cells = assay type: cell-based, chicken; settings: chicken; dstet5 cells; concentration that reduces 50% of cell viability
[2] = system: DHBV transgene integrated in host cellular chromosome; test: DHBV pgRNA transcription from transgene integrated in host cellular chromosome (FIG. 4); assay type: cell-based
HBV cccDNA [3] = test: HBV cccDNA transcription in HepG2 cells; assay type: cell-based, HBV in human HepG2 cells
dstet5 cells = test: Toxicity on dstet5 cells; assay type: cell-based, chicken
[4] = cited from earlier work
[5] = cited from earlier work; remark: listed apart in the source
cccDNA = settings: positive drug control; from our screen, Guo 2012; cited from earlier work
DHBV = test: Duck hepadnavirus efficacy study; assay type: in vivo, Peking Ducks; settings: by 3 weeks of treatment, expected
Description: Six-week-old Peking Ducks, chronically infected with DHBV type 16 (Alberta Strain), are used. At 6 weeks, viremia and liver mass in ducks tends to have stabilized. Ducks are given, by either i.m. or oral gavage (depending on Aim 4 PK/TK results), test compound (3 dose groups, with dosing amount and frequency to depend on PK results, but aiming to achieve stable serum levels of at least 10 times the tissue culture IC50). There are three dose groups with 5-6 animals per dose group. Control dose groups (6 animals each group) include placebo treated animals and animals treated with either barraclude (1 mg/kg) or lamivudine (40 mg/kg) per day. At least three animals from all dose groups contribute at least one pre treatment and one post treatment liver biopsy. Treatment is for 10 weeks, since this exceeds the time for lamivudine to suppress viremia to beneath detectable levels and the reported ½ life of cccDNA in the duck. Ducks are followed with weekly serum collections for an additional 4 weeks after withdrawal of drug. Serum will be collected weekly.
Weekly serum is tested for standard “lab values” (hematology, albumin, AST, ALTs, The amount of DHBV viral DNA, sAg, sAb in the circulation is determined. Liver tissue derived from biopsies (some pre treatment and end of treatment from the same animals) is examined for DHBV DNA (cccDNA, replicative forms) and DHBV core (immunostained). […]

WHV = test: WHV-infected woodchuck study; assay type: in vivo; settings: by 10 weeks of treatment, expected
Description: The study uses 10 groups, with 5 animals per group, with drug treatment for 10 weeks followed by 10 weeks off drug (to test durability of affect). Due to variability in the levels of viremia and antigenemia, animals are stratified to groups by WHV viremia and antigenemia levels as determined seven days prior to study start, so that the average levels of both viral markers are evenly distributed among all groups of animals. Animals with abnormally low WHVsAg levels are not used in this study. Compound is administered daily, by a route and frequency to be finalized after bioavailability studies in rodents. The first day of dosing on the study is Study Day 1. Study Day 1 dose levels are calculated on a pretest body weight, and body weights are taken weekly for dose administration. Dosing range is as for the mouse study over four doses, with Group 10 treated with Barraclude as a reference compound (Tennant).
The primary endpoint is a dose dependent reduction in viremia and antigenemia on and off drug achieving durable off drug reductions.
The benchmark of positive activity is LFMAU treated animals.

HDAC = settings: relative to Apicidin; cited from earlier work
[6] = in Gallus gallus, read-out: HBV cccDNA (EC50, uM)

For CN(C)c1ccc(C(=O)NCCCCCCC(=O)NO)cc1 [4-(dimethylamino)-N-[7-(hydroxyamino)-7-oxoheptyl] benzamide], which “HDAC III inhibitor (printed in the HDAC-II inhibitor line)” value (HDAC III) is on record?
The value was “HDAC III^7,11”.

And the “HDAC-II inhibitor?” value (HDAC-II)?
The value was “YES &”.

What about the “Selectivity Index (SI)” value (HBV cccDNA [1]) of the same compound?
The value was >16.

What about the EC50 (HBV cccDNA [1]; [6]) of the same compound?
The EC50 was 6.25 µM.

And the “HDAC-I inhibitor?” value (HDAC-I)?
Its value is “YES^4,7”.

And the CC50 (Toxicity on dstet5 cells)?
Its CC50 is > 100 µM.

With CCC(=O)CCCCC[C@@H]1NC(=O)[C@H]2CCCCN2C(=O)[C@H]([C@@H](C)CC)NC(=O)[C@H](Cc2cn(OC)c3ccccc23)NC1=O [Apicidin, cyclo(N—O-methyl-L-tryptophanyl-L-isoleucinyl-D-pipecolinyl-L-2-amino-8-oxodecanoyl)] as the compound, how does the “DHBV pgRNA transcription from transgene integrated in host cellular chromosome” value [2] read?
Its value is “dose-dependently stimulate”.

What about the “activity against the DHBV, in culture” value (HBV cccDNA [1]) of the same compound?
The value was “highly active”.

What about the cccDNA transcription (HBV cccDNA [1]; FIG. 3) of the same compound?
Its cccDNA transcription is “repress”.

What about the EC50 (HBV cccDNA [1]; FIG. 3, read-out: inhibition of cccDNA, EC50) of the same compound?
Its EC50 is ~0.18 µM.

And the EC50 (HBV cccDNA [1]; dstet5 system, concentration that reduces 50% of the HBV specific signal (RNA and/or HBeAg), read-out: HBV cccDNA (EC50))?
Its EC50 is 0.183 µM.

What about the “HBV cccDNA transcription” value (HBV cccDNA [3]) of the same compound?
Its value is “repress”.

And the cccDNA levels (HBV cccDNA [3])?
Its cccDNA levels is “reduced”.

What about the “HDAC-I inhibitor?” value (HDAC-I) of the same compound?
Its value is “YES^4,5”.

What about the “activity against class I HDACs” value (HDAC-I) of the same compound?
The value was “nanomolar activity; also recorded: efficiently inhibits”.

What about the toxicity (dstet5 cells; at up to 20 uM for five days) of the same compound?
The toxicity was “no toxicity”.

What about the CC50 (dstet5 cells; dstet5 cells, concentration that reduces 50% of cell viability) of the same compound?
The CC50 was > 20 µM.

And the “half life in vivo” value [4]?
Its value is “very poor”.

What about the oral bioavailability ([4]; in vivo, po) of the same compound?
Its oral bioavailability is “very poor”.

What about the aqueous solubility [5] of the same compound?
The aqueous solubility was “very poor”.

Which cccDNA formation (cccDNA) does the source give for O=C(CN(c1cc(C(F)(F)F)ccc1Cl)S(=O)(=O)c1ccccc1)NCc1ccncc1 [CCC-0975] here?
Its cccDNA formation is “inhibits”.

With Cc1cn([C@H]2O[C@@H](CO)[C@H](O)[C@H]2F)c(=O)[nH]c1=O [LFMAU] as the compound, how does the “HBV viremia and antigenemia” value (DHBV) read?
Its value is “uniformly lost HBV viremia and even antigenemia”.

And the “HBV viremia and antigenemia” value (WHV)?
The value was “uniformly lost HBV viremia and even antigenemia”.

Which “HDAC III inhibitor (printed in the HDAC-II inhibitor line)” value (HDAC III) does the source give for O=C(CCCCCCC(=O)NO)NO [Suberoyl bis hydroxamic acid (SBHA), Suberoyl bis hydroxamic acid] here?
Its value is “HDAC III^11”.

And the “HDAC-II inhibitor?” value (HDAC-II)?
The value was “YES &”.

What about the “Selectivity Index (SI)” value (HBV cccDNA [1]) of the same compound?
Its value is >16.

And the EC50 (HBV cccDNA [1]; [6])?
Its EC50 is 2.5 µM.

What about the “HDAC-I inhibitor?” value (HDAC-I) of the same compound?
Its value is “YES^4,6,7,10”.

What about the CC50 (Toxicity on dstet5 cells) of the same compound?
The CC50 was > 40 µM.

What does the source list for CC(/C=C/C(=O)NO)=C\[C@@H](C)C(=O)c1ccc(N(C)C)cc1 [Trichostatin A]?
effect on class III HDACs (sirtuins) (HDAC III; in words): not affected; DHBV pgRNA transcription from transgene integrated in host cellular chromosome [2]: dose-dependently stimulate; HDAC-II inhibitor? (HDAC-II): YES^4,5,6,9; activity against class II HDACs (HDAC-II; in words): inhibited; Selectivity Index (SI) (HBV cccDNA [1]): >40; cccDNA transcription (HBV cccDNA [1]; FIG. 3): repress; EC50 (HBV cccDNA [1]; [6]): 0.48 µM; HBV cccDNA transcription (HBV cccDNA [3]): repress; cccDNA levels (HBV cccDNA [3]): reduced; HDAC-I inhibitor? (HDAC-I): YES^5,6,9; activity against class I HDACs (HDAC-I): inhibited; CC50 (Toxicity on dstet5 cells): > 20 µM

Which “anti HDAC potency” value (HDAC) does the source give for CCC(=O)CCCCC[C@@H]1NC(=O)Cn2cc(nn2)[C@H](C(C)CC)NC(=O)[C@H](Cc2c[nH]c3ccccc23)NC1=O (stereo partly shown) [analog 1] here?
Its value is “without loss of anti HDAC potency”.

Which “anti HDAC potency” value (HDAC) does the source give for CCC[C@@H]1NC(=O)[C@H](C)NC(=O)C[C@H](CC(C)C)NC(=O)[C@H](Cc2c[nH]c3ccccc23)NC1=O [analog 2] (cyclo(A[Nva]W[β3hL])) here?
The value was “without loss of anti HDAC potency”.
